In data set [1] the target is T1, Leukotriene A-4 hydrolase (Homo sapiens, UniProt P09960).
T1 sequence (P09960 whole entry): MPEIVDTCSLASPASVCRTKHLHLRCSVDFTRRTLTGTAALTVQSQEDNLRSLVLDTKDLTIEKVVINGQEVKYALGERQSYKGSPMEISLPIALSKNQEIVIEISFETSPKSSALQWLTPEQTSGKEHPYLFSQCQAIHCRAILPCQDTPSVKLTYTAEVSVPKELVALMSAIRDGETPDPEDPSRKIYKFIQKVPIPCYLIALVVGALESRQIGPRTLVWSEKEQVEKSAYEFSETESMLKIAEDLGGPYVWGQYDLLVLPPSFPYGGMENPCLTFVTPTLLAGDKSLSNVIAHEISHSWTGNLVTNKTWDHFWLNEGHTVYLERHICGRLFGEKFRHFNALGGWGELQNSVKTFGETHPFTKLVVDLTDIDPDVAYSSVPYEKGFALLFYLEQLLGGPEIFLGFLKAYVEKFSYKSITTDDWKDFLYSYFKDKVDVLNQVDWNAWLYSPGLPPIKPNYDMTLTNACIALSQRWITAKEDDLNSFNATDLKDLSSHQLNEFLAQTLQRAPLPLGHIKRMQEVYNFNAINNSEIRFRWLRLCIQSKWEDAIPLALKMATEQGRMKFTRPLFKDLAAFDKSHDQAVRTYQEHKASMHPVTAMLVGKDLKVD
Kind of data set: Inhibition of recombinant C-terminal His-tagged human LTA4H epoxide hydrolase activity expressed in Escherichia coli assessed as reduction in LTB4 production using LTA4 as substrate preincubated for 20 mins followed by substrate addition measured after 30 mins by enzyme immunoassay.

The nature of data set [2]: Cytotoxicity against human HCT116 cells assessed as reduction in cell viability after 48 hrs by WST1 assay. Conditions: HCT-116, 48 h. It is filed as functional, cell-based.
Data set [3] in a line: Cytotoxicity against human HF19 cells assessed as reduction in cell viability after 48 hrs by WST1 assay. The format is toxicity, cell-based. (In general: Formazan colour is commonly taken as a measure of viable cells.)
For data set [4], the target named is T1, Leukotriene A-4 hydrolase. Kind of data set: Inhibition of recombinant C-terminal His-tagged human LTA4H aminopeptidase activity expressed in Escherichia coli using L-alanine-4-nitro-anilide hydrochloride as substrate preincubated for 20 mins followed by substrate addition.
The test system of a further data set is HCT-116. Kind of data set: Selectivity index, ratio of IC50 for human TIG1 cells to IC50 for human HCT116 cells. The format is functional.
Data set [5] in a line: Cytotoxicity against human TIG1 cells assessed as reduction in cell viability after 48 hrs by WST1 assay. It is filed as toxicity, cell-based.

pIC50: −log10 of the molar value. A value given as a limit tells only on which side of the number the result lay.

In general, pIC50 refers to the IC50 on a negative log10 scale, so that one unit is a factor of ten. Usually IC50 stands for the concentration that inhibits the measured activity by half. Regarding `CCCCCC(CC(=O)CCc1ccc(OC(C)=O)c(OC)c1)OC(C)=O` (configuration not stated), the values for the pIC50 in data set [1], in data set [2] and in data set [4] were 4.56, 4.51 and 4.66, respectively. For the same compound, the IC50 at 48 h in data set [3] and in data set [5] was over 100 µM each time. In the data set with HCT-116, the “Ratio IC50” value amounted to 3.23.

On to `CCCCC/C=C/C(=O)CCc1ccc(OC)c(OC)c1`, for which the pIC50 in data set [1] is 4.95; in data set [2], 5.81; in data set [4] it was 5.31. For the same compound, the IC50 at 48 h in data set [3] is over 100 µM; in data set [5], 80.6 µM. The “Ratio IC50” value in the data set with HCT-116 is given as 52.3.

For `CCCCCC(CC(=O)CCc1ccc(OC)c(OC)c1)OC` (configuration not stated), the pIC50 in data set [1], in data set [2] and in data set [4] was under 4.00 throughout. Also, the IC50 at 48 h in data set [3] and in data set [5] was over 100 µM in each case.

`CCCCC/C=C/CCC(O)CC(=O)CCc1ccc(O)c(OC)c1` (configuration not stated): the pIC50 in data set [1] was 4.17; in data set [2], 4.34; in data set [4] it was 4.34. In addition, the IC50 at 48 h is 97.5 µM in data set [3] and over 100 µM in data set [5]. For the same compound, the “Ratio IC50” value in the data set on HCT-116 is 2.17.

For `CCCCCCCC(O)CC(=O)CCc1ccc(O)c(OC)c1` (configuration not stated), the pIC50 in data set [1], in data set [2] and in data set [4] was under 4.00 each time. Besides, the figures for the IC50 at 48 h in data set [3] and in data set [5] were 77.6 µM and 55.6 µM, respectively. In the data set with HCT-116, the “Ratio IC50” value was 0.55.

`CCCCC/C=C/C(=O)CCc1ccc(OC(C)=O)c(OC)c1`: the figures for the pIC50 in data set [1], in data set [2] and in data set [4] were 4.53, 4.57 and 5.03, respectively. In addition, the IC50 at 48 h in data set [3] and in data set [5] was over 100 µM in each case. Further, in the data set with HCT-116, the “Ratio IC50” value came out at 3.72.

For `CCCCCC(O)CC(=O)CCc1ccc(O)c(OC)c1` (configuration not stated), the pIC50 in data set [1] is 4.23; in data set [2], 4.35; in data set [4], 4.25. The IC50 at 48 h in data set [3] is over 100 µM; in data set [5], 75.2 µM. For the same compound, in the data set with HCT-116, the “Ratio IC50” value is given as 1.67.

Regarding `CC(C)C[C@H](NC(=O)[C@@H](O)[C@H](N)Cc1ccccc1)C(=O)O` [UBENIMEX], the pIC50 in data set [2] is 4.37. Moreover, the IC50 at 48 h in data set [3] worked out at 89.5 µM; in data set [5], 77.8 µM.

Take `CC(C)=CCCC(C)[C@H]1CC=C(C)C(O)[C@H]1O` (some centres not stated): the pIC50 in data set [1], in data set [2] and in data set [4] was under 4.00 in each case. Also, the 50% inhibitory concentration (IC50) at 48 h in data set [3] and in data set [5] was over 100 µM each time. For the same compound, the “Ratio IC50” value with HCT-116 is listed as 1.

On to `CCCCCC(CC(=O)CCc1ccc(O)c(OC)c1)OC` (configuration not stated), for which the pIC50 in data set [1], in data set [2] and in data set [4] was under 4.00 in each case. The IC50 at 48 h in data set [3] and in data set [5] was over 100 µM each time.

`COc1ccc(CCC(C)=O)cc1OC`: the pIC50 in data set [1], in data set [2] and in data set [4] was under 4.00 each time. Moreover, the IC50 at 48 h in data set [3] and in data set [5] was over 100 µM in each case.

On to `CCCCCC(O)CC(=O)CCc1cc(OC)c(O)c(-c2cc(CCC(=O)CC(O)CCCCC)cc(OC)c2O)c1` (configuration not stated), for which the pIC50 is 4.11 in data set [1], under 4.00 in data set [2] and under 4.00 in data set [4]. Further, the IC50 at 48 h amounted to 54.8 µM in data set [3] and 63.1 µM in data set [5]. The “Ratio IC50” value with HCT-116 is on record as 0.63.

On to `CCCC(O)CC(=O)CCc1ccc(O)c(OC)c1` (configuration not stated), for which the pIC50 in data set [1], in data set [2] and in data set [4] was under 4.00 each time. The IC50 at 48 h in data set [3] and in data set [5] was over 100 µM throughout.

With `CCCCCCCCCC(O)CC(=O)CCc1ccc(O)c(OC)c1` (configuration not stated), the pIC50 is 4.82 in data set [1], 4.48 in data set [2] and 4.67 in data set [4]. Further, the IC50 at 48 h in data set [3] and in data set [5] was over 100 µM in each case. The “Ratio IC50” value in the data set on HCT-116 is recorded as 3.

As for `CCCCCC(O)CC(=O)CCc1ccc(OCC=C(C)C)c(OC)c1` (configuration not stated), the pIC50 is 5.14 in data set [1], 4.67 in data set [2] and 5.52 in data set [4]. The IC50 at 48 h in data set [3] is over 100 µM; in data set [5] it was 83.2 µM. Besides, in the data set on HCT-116, the “Ratio IC50” value stood at 3.87.

`Nc1nc(-c2ccc(Cc3ccccc3)cc2)cs1`: the pIC50 was 4.91 in data set [1], 4.52 in data set [2] and 5.12 in data set [4]. Further, the IC50 at 48 h in data set [3] is over 100 µM; in data set [5], 84.3 µM. In addition, the “Ratio IC50” value in the data set with HCT-116 is on record as 2.76.

Regarding `C=CCOc1ccc(CCC(=O)CC(O)CCCCC)cc1OC` (configuration not stated), the figures for the pIC50 in data set [1], in data set [2] and in data set [4] were 4.18, under 4.00 and 4.25, respectively. Further, the results for the IC50 at 48 h in data set [3] and in data set [5] were over 100 µM and 64.6 µM, respectively. Besides, the “Ratio IC50” value with HCT-116 is given as 0.65.

Regarding `CCCCCC(O)CC(=O)CCc1ccc(OC)c(OC)c1` (configuration not stated), the results for the pIC50 in data set [1], in data set [2] and in data set [4] were under 4.00, 4.12 and under 4.00, respectively. Besides, the results for the IC50 at 48 h in data set [3] and in data set [5] were 88.4 µM and 92.8 µM, respectively. Also, the “Ratio IC50” value with HCT-116 stood at 1.21.

For `CCCCC/C=C/C(=O)CCc1ccc(O)c(OC)c1` [SHOGAOL], the figures for the pIC50 in data set [1], in data set [2] and in data set [4] were 4.61, 4.89 and 4.90, respectively. Also, the IC50 at 48 h in data set [3] and in data set [5] was over 100 µM in each case. Besides, in the data set on HCT-116, the “Ratio IC50” value was 7.77.

For the origin of these results see ChEMBL document CHEMBL3875224, “Synthesis, docking, cytotoxicity, and LTA4H inhibitory activity of new gingerol derivatives as potential colorectal cancer therapy” (Bioorg Med Chem, 2017).
